Data reported in article PMC8510478, “Characterization and Identification of Bioactive Polyphenols in the Trapa bispinosa Roxb. Pericarp Extract” (Molecules, 2021).
Counter-ions that a name gives are not always drawn. Like-named read-outs stand apart in the source and are kept apart here.

How the values were obtained:
[1] = AGE-derived crosslink-cleaving effect (PPD cleavage to benzoic acid, HPLC); settings: for Crosslink-Cleaving Activities Relative Ratio: tested samples 100 μg/mL, relative to PTB = 100, means ± SE (n = 3); for AGE cross-link cleaving activity (in words): compared with positive control PTB
Protocol: The AGE crosslink-cleaving activity of the same samples was evaluated according to the previously described method by Kato et al. with a slight modification. Briefly, the 1 mg/mL of tested samples prepared with H2O were mixed with 1.13 mM PPD solution in MeOH:50 mM phosphate buffer (pH 7.4) (1:1) and incubated at 37 °C for 4 h. After 4 h, the reaction was stopped with 200 μL of 2 M HCl, then the stopped reaction mixtures were centrifuged at 8200× g for 5 min. The amount of benzoic acid in the supernatant was measured by reversed-phase HPLC. The following conditions were applied: column, InertSustain C18 column (150 mm × 4.6 i.d mm., 5 μm); mobile phase, 50 mM phosphate buffer (pH 2.2):CH3CN (80:20) (solvent A) and 50 mM phosphate buffer (pH 2.2):CH3CN (50:50) (solvent B), the gradient program, 0–20 min (solvent B: 0–25%), 20–25 min (solvent B: 25–100%), 25–36 min (solvent B: 100–25%); column temperature, 40 °C; detection, UV at 230 nm; flow rate, 1.0 mL/min. These cleaving effects were calculated as equivalents to benzoic acid.

[2] = test system: AGE formation in human serum albumin (HSA)/glucose or fructose; assay: Inhibitory effect on AGE formation (HSA with glucose or fructose, fluorescence); assay type: biochemical; settings: 60 °C, 40 h, means ± SE (n = 3)
Protocol: The antiglycation effects of compounds isolated from TBE and several other related compounds were evaluated based on their AGE inhibitory activities as described previously, with slight modifications. Briefly, the sample solution was added to a reaction mixture containing 83.3 mM phosphate buffer (pH 7.2), 2.0 M glucose, 2.0 M fructose, 8.0 mg/mL human serum albumin (HSA), and distilled water (6:1:1:1:1, v/v). As a control, the vehicle was supplemented instead of the sample solution. For each blank, glucose or fructose was replaced with distilled water, and the total volume was set to 1000 μL. After incubation of the sample mixture at 60 °C for 40 h, the solutions were diluted 8-fold with distilled water, dispensed into a black microplate in 200 µL portions, and their fluorescence intensities were measured at excitation and emission wavelengths of 370 and 465 nm, respectively, using a Power Scan HT (DS Pharma Biomedical Co. Ltd., Osaka, Japan). The inhibitory rate was calculated as; Inhibitory rate (%) = 100 − [(S − SB)/(C − CB)] × 100(2) where S is the relative intensity of the sample solution, C is the relative intensity of the control solution, and SB and CB are the intensities of the glucose or fructose-omitted blank solutions. The experimental data are represented as IC50 (μM) values.

[3] = target: α-glucosidase; design: method as in earlier work; settings: cited from earlier work; for IC50: table lines marked with reference 8, means ± SE (n = 3), read-out: Inhibitory Effects on α-Glucosidase Activity IC50; for Inhibitory activity on α-glucosidase (in words): ellagitannin dimers isolated from T. japonica
[4] = test system: α-glucosidase; assay: α-Glucosidase inhibitory activity (rat intestinal acetone powder, maltose substrate); assay type: biochemical; settings: for IC50: maltose, pH 7, 37 °C, means ± SE (n = 3), read-out: Inhibitory Effects on α-Glucosidase Activity IC50
Protocol: The α-glucosidase inhibitory activity was tested according to the previously described method by Kirino et al. with a slight modification. Rat intestinal acetone powder was mixed with 0.1 M phosphate buffer (pH 7) and centrifuged at 18,500× g and 4 °C for 20 min. The resulting supernatant was collected and used as a glucosidase solution for enzymatic assay. Each sample solution (160 μL) was mixed with 250 mM maltose solution (20 μL) in 0.2 M phosphate buffer (pH 7) and then incubated at 37 °C for 3 min. After incubation, the enzymatic reaction was started by adding glucosidase solution from the rat intestine (20 μL) and the resulting reaction mixtures were further incubated at 37 °C for 15 min. After 15 min, the reaction mixtures were immediately heated at 100 °C for 5 min to stop the reaction followed by cooling on ice for 5 min. The amount of glucose in the reaction mixtures was determined using the F-Kit glucose (Roche diagnostics, Co., Tokyo, Japan) by measuring the absorbance at 340 nm. A control was carried out with 0.1 M phosphate buffer (pH 7) instead of sample solution. For the blank, the glucosidase solution was replaced with distilled water. The glucosidase inhibitory rates of tested samples were calculated as; Inhibitory rate (%) = 100 − [(Asample − Ablank)/(Acontrol − Ablank)] × 100(1) where Asample, Acontrol, and Ablank is the absorbance of the tested sample, control, and blank, respectively. The experimental data are represented as IC50 (μM) values.

[5] = HSA/fructose, read-out: Inhibitory Effects on AGE Formation IC50, Fructose
[6] = HSA/glucose, read-out: Inhibitory Effects on AGE Formation IC50, Glucose

O=C(OC[C@H]1O[C@@H](O)[C@H](OC(=O)c2cc(O)c(O)c(O)c2)[C@@H](O)[C@@H]1O)c1cc(O)c(O)c(O)c1 [Compound 1, 2,6-di-O-galloyl-β-D-glucose]
Crosslink-Cleaving Activities Relative Ratio [1]: 77.4 ± 4.0 | IC50 [2, 5]: 3.3 µM | IC50 [2, 6]: 1.5 ± 0.1 µM

O=C(OC1O[C@@H]2COC(=O)c3cc(O)c(O)c(O)c3-c3c(cc(O)c(O)c3O)C(=O)O[C@H]2[C@H](OC(=O)c2cc(O)c(O)c(O)c2)[C@H]1OC(=O)c1cc(O)c(O)c(O)c1)c1cc(O)c(O)c(O)c1 (stereo partly shown) [Compound 7, tellimagrandin II]
IC50 [3]: > 100 µM | Crosslink-Cleaving Activities Relative Ratio [1]: 230.8 ± 12.2 | IC50 [2, 5]: 0.3 µM | IC50 [2, 6]: 0.2 µM

O=c1oc2c(O)c(Oc3ccc(O)c(O)c3O)cc3c(=O)oc4c(O)c(O)cc1c4c23 [Compound 12, eschweilenol A]
AGE cross-link cleaving activity (in words) [1]: remarkable activities | Crosslink-Cleaving Activities Relative Ratio [1]: 484.5 ± 12.5 | IC50 [2, 5]: 2.9 ± 0.1 µM | IC50 [2, 6]: 2.4 µM | α-Glucosidase inhibitory activity (in words) [4]: no inhibitory activity | IC50 [4]: > 100 µM

O=C(OC[C@H]1O[C@@H](OC(=O)c2cc(O)c(O)c(O)c2)[C@H](OC(=O)c2cc(O)c(O)c(O)c2)[C@@H](O)[C@@H]1OC(=O)c1cc(O)c(O)c(O)c1)c1cc(O)c(O)c(O)c1 [Compound 6, 1,2,4,6-tetra-O-galloyl-β-D-glucose]
Crosslink-Cleaving Activities Relative Ratio [1]: 159.6 ± 12.7 | IC50 [2, 5]: 0.3 µM | IC50 [2, 6]: 0.3 µM | IC50 [4]: > 100 µM

O=C(OC[C@H]1O[C@@H](OC(=O)c2cc(O)c(O)c(O)c2)[C@H](OC(=O)c2cc(O)c(O)c(O)c2)[C@@H](OC(=O)c2cc(O)c(O)c(O)c2)[C@@H]1O)c1cc(O)c(O)c(O)c1 [Compound 5, 1,2,3,6-tetra-O-galloyl-β-D-glucose]
IC50 [3]: > 100 µM | Crosslink-Cleaving Activities Relative Ratio [1]: 209.0 ± 33.7 | IC50 [2, 5]: 0.3 µM | IC50 [2, 6]: 0.3 µM

O=c1oc2c(Oc3ccc(O)c(O)c3O)c(O)cc3c(=O)oc4c(O)c(O)cc1c4c23 [Compound 11, rubuphenol]
AGE cross-link cleaving activity (in words) [1]: remarkable activities | Crosslink-Cleaving Activities Relative Ratio [1]: 514.8 ± 11.2 | IC50 [2, 5]: 4.7 ± 0.3 µM | IC50 [2, 6]: 2.4 µM | α-Glucosidase inhibitory activity (in words) [4]: no inhibitory activity | IC50 [4]: > 100 µM

N=C(N)NN [Aminoguanidine, aminoguanidine hydrochloride, reference compound]
IC50 [2, 5]: 801 ± 17.7 µM | IC50 [2, 6]: 259 ± 6.8 µM

O=C(O)c1cc(O)c(O)c(O)c1 [Gallic acid]
IC50 [3]: > 100 µM | AGE cross-link cleaving activity (in words) [1]: remarkable activities | Crosslink-Cleaving Activities Relative Ratio [1]: 720.1 ± 54.1 | IC50 [2, 5]: 27 ± 2.6 µM | IC50 [2, 6]: 14.7 ± 2 µM | α-Glucosidase inhibitory activity (in words) [4]: little effect

O=c1oc2c(O)c(O)cc3c(=O)oc4c(O)c(O)cc1c4c23 [Ellagic acid, reference compound]
Crosslink-Cleaving Activities Relative Ratio [1]: 11.4 ± 0.1 | IC50 [2, 5]: 2.5 ± 0.1 µM | IC50 [2, 6]: 1.8 ± 0.1 µM | α-Glucosidase inhibitory activity (in words) [4]: little effect | IC50 [4]: > 100 µM

O=C(C[n+]1ccsc1)c1ccccc1.[Br-] [N-Phenacylthiazolium bromide (PTB), N-phenacylthiazolium bromide, reference compound]
Crosslink-Cleaving Activities Relative Ratio [1]: 100

O=C(O[C@@H]1O[C@@H]2COC(=O)c3cc(Oc4c(C(=O)O[C@H]5C(O)O[C@@H]6COC(=O)c7cc(O)c(O)c(O)c7-c7c(cc(O)c(O)c7O)C(=O)O[C@H]6[C@@H]5OC(=O)c5cc(O)c(O)c(O)c5)cc(O)c(O)c4O)c(O)c(O)c3-c3c(cc(O)c(O)c3O)C(=O)O[C@H]2[C@H](OC(=O)c2cc(O)c(O)c(O)c2)[C@H]1OC(=O)c1cc(O)c(O)c(O)c1)c1cc(O)c(O)c(O)c1 (stereo partly shown) [Compound 9, camptothin B]
Crosslink-Cleaving Activities Relative Ratio [1]: 180.6 ± 4.2 | IC50 [2, 5]: 0.2 µM | IC50 [2, 6]: 0.1 µM | IC50 [4]: > 100 µM

COc1cc([C@H]2Oc3c(OC)cc(CCCO)cc3[C@@H]2CO)ccc1O [Compound 13]
Crosslink-Cleaving Activities Relative Ratio [1]: 17.2 ± 1.1 | IC50 [2, 5]: > 1000 µM | IC50 [2, 6]: > 500 µM | α-Glucosidase inhibitory activity (in words) [4]: no inhibitory activity | IC50 [4]: > 100 µM

O=C(O[C@@H]1O[C@H](CO)[C@@H](O)[C@H](OC(=O)c2cc(O)c(O)c(O)c2)[C@H]1OC(=O)c1cc(O)c(O)c(O)c1)c1cc(O)c(O)c(O)c1 [Compound 2, 1,2,3-tri-O-galloyl-β-D-glucose]
IC50 [3]: > 100 µM | Crosslink-Cleaving Activities Relative Ratio [1]: 190.5 ± 2.5 | IC50 [2, 5]: 0.4 µM | IC50 [2, 6]: 0.4 µM

Cornusiin G [reference compound]
Inhibitory activity on α-glucosidase (in words) [3]: comparable to that of acarbose | IC50 [3]: 6.3 ± 0.1 µM

O=C(OC[C@H]1O[C@@H](OC(=O)c2cc(O)c(O)c(O)c2)[C@H](OC(=O)c2cc(O)c(O)c(O)c2)[C@@H](O)[C@@H]1O)c1cc(O)c(O)c(O)c1 [Compound 3, 1,2,6-tri-O-galloyl-β-D-glucose]
IC50 [3]: > 100 µM | Crosslink-Cleaving Activities Relative Ratio [1]: 146.6 ± 12.6 | IC50 [2, 5]: 0.4 µM | IC50 [2, 6]: 0.3 µM

O=C(O[C@@H]1O[C@@H]2COC(=O)c3cc(Oc4c(C(=O)O[C@@H]5O[C@@H]6COC(=O)c7cc(O)c(O)c(O)c7-c7c(cc(O)c(O)c7O)C(=O)O[C@H]6[C@H](OC(=O)c6cc(O)c(O)c(O)c6)[C@H]5OC(=O)c5cc(O)c(O)c(O)c5)cc(O)c(O)c4O)c(O)c(O)c3-c3c(cc(O)c(O)c3O)C(=O)O[C@H]2[C@H](OC(=O)c2cc(O)c(O)c(O)c2)[C@H]1OC(=O)c1cc(O)c(O)c(O)c1)c1cc(O)c(O)c(O)c1 [rugosin D, reference compound]
Inhibitory activity on α-glucosidase (in words) [3]: comparable to that of acarbose

O=C(OC[C@H]1O[C@@H](O)[C@H](OC(=O)c2cc(O)c(O)c(O)c2)[C@@H](OC(=O)c2cc(O)c(O)c(O)c2)[C@@H]1O)c1cc(O)c(O)c(O)c1 [Compound 4, 2,3,6-tri-O-galloyl-β-D-glucose]
IC50 [2, 5]: 1 µM | IC50 [2, 6]: 0.3 µM

O=C(O[C@@H]1O[C@@H]2COC(=O)c3cc(Oc4ccc(O)c(O)c4O)c(O)c(O)c3-c3c(cc(O)c(O)c3O)C(=O)O[C@H]2[C@H](OC(=O)c2cc(O)c(O)c(O)c2)[C@H]1OC(=O)c1cc(O)c(O)c(O)c1)c1cc(O)c(O)c(O)c1 [Compound 8, decarboxylated rugosin A]
Crosslink-Cleaving Activities Relative Ratio [1]: 233.0 ± 5.8 | IC50 [2, 5]: 0.3 µM | IC50 [2, 6]: 0.3 µM | IC50 [4]: 20.7 ± 0.1 µM

COc1cc(C2Oc3c(OC)cc(CCCO)cc3C2COC2OC(CO)C(O)C(O)C2O)ccc1O [Compound 10, (7′S,8′R)-dihydrodehydrodiconiferyl alcohol-9′-O-β-D-glucoside]
Crosslink-Cleaving Activities Relative Ratio [1]: 16.7 ± 1.4 | IC50 [2, 5]: > 1000 µM | IC50 [2, 6]: > 500 µM | α-Glucosidase inhibitory activity (in words) [4]: no inhibitory activity | IC50 [4]: > 100 µM

O=C(OC[C@H]1O[C@@H](OC(=O)c2cc(O)c(O)c(O)c2)[C@H](OC(=O)c2cc(O)c(O)c(O)c2)[C@@H](OC(=O)c2cc(O)c(O)c(O)c2)[C@@H]1OC(=O)c1cc(O)c(O)c(O)c1)c1cc(O)c(O)c(O)c1 [1,2,3,4,6-Penta-O-galloyl-β-D-glucose, reference compound]
Crosslink-Cleaving Activities Relative Ratio [1]: 97.9 ± 2.1 | IC50 [2, 5]: 0.2 µM | IC50 [2, 6]: 0.2 µM | IC50 [4]: 59 ± 0.4 µM
